ChEMBL document CHEMBL5252509, “In depth analysis of kinase cross screening data to identify chemical starting points for inhibition of the Nek family of kinases” (Medchemcomm, 2018)

Experiments:
[1] = biological target: T1, Serine/threonine-protein kinase Nek1 (Homo sapiens) (UniProt Q96PY6); test: Inhibition of NEK1 (unknown origin) at 10 uM relative to control
T1 sequence (whole entry): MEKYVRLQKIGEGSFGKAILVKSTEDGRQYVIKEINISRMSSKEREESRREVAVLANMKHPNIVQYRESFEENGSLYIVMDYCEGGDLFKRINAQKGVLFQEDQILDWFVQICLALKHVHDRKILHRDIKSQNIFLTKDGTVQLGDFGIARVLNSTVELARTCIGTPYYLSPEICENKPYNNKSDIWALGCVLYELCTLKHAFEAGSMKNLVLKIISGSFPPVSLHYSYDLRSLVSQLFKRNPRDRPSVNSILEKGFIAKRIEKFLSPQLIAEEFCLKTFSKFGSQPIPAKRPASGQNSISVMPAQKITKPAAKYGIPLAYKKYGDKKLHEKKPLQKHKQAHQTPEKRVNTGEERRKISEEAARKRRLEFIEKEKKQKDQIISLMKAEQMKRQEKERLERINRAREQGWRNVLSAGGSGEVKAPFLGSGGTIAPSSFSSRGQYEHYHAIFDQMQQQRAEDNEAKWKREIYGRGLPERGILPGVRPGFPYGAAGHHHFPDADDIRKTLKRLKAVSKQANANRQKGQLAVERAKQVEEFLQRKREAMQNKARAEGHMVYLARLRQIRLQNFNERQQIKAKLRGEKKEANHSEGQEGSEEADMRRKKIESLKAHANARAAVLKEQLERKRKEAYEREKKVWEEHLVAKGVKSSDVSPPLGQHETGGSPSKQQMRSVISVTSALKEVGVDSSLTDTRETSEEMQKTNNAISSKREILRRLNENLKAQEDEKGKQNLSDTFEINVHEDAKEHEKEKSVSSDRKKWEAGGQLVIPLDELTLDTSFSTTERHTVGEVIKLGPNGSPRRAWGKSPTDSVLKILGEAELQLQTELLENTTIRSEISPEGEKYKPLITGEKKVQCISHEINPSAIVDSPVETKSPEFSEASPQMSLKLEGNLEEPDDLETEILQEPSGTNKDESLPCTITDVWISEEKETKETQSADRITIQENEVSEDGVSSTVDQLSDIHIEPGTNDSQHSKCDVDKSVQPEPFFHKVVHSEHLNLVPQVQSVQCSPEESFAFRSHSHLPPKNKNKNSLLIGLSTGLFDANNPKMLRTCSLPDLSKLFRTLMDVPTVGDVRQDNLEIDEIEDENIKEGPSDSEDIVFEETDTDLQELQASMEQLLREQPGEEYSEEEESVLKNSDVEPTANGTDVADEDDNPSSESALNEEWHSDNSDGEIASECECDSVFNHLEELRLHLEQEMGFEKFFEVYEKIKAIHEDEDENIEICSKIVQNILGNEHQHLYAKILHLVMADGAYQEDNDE

[2] = biological target: T2, Serine/threonine-protein kinase Nek3 (Homo sapiens) (UniProt P51956); test: Inhibition of NEK3 (unknown origin) at 10 uM relative to control
T2 sequence (whole entry): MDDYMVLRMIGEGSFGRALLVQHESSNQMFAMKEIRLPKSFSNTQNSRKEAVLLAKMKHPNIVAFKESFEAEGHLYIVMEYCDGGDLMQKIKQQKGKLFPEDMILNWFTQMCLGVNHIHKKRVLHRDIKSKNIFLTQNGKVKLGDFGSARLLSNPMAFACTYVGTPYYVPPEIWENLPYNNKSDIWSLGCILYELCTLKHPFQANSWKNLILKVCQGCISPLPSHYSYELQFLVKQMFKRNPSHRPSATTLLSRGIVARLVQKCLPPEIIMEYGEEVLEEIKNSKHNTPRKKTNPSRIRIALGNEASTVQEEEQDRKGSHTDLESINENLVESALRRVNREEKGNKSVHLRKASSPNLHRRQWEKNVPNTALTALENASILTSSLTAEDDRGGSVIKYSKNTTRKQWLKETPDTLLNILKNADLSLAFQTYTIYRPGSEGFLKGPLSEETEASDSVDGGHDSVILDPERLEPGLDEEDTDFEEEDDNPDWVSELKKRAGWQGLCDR

[3] = biological target: T3, Serine/threonine-protein kinase Nek9 (Homo sapiens) (UniProt Q8TD19); test: Inhibition of NEK9 (unknown origin) at 10 uM relative to control
T3 sequence (whole entry): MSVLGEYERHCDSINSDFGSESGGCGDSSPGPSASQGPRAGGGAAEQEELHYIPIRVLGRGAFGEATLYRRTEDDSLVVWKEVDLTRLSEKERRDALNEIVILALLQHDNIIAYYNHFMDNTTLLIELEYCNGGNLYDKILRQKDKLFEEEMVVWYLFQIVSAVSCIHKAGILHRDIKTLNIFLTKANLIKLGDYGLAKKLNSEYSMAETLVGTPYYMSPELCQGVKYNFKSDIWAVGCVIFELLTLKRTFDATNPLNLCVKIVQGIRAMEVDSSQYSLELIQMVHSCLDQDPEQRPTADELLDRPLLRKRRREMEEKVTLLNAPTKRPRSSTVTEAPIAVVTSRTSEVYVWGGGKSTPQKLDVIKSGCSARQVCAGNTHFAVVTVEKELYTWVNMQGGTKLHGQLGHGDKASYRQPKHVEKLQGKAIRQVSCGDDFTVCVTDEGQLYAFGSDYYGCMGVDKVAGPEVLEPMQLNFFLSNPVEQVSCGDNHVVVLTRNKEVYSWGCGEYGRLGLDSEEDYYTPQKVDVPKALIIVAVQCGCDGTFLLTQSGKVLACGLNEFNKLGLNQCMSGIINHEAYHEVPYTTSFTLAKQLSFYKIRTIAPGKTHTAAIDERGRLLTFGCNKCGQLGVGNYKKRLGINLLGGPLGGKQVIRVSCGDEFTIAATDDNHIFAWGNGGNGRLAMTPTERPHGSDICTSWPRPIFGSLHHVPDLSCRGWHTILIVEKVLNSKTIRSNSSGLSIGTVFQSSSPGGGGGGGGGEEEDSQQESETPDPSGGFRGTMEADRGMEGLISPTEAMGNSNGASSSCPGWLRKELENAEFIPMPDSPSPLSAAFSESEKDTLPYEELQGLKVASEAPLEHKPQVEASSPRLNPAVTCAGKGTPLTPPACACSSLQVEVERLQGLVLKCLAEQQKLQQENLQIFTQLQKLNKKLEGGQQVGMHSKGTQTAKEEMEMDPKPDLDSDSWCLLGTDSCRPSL

% control [1] [%]	% control [2] [%]	SMILES	% control [3] [%]
100	99	CN(C)C/C=C/C(=O)Nc1cccc(C(=O)Nc2ccc(Nc3nccc(-c4c(-c5ccccc5)nn5ccccc45)n3)cc2)c1	100
63	17	CN(C)C/C=C/C(=O)Nc1ccc(C(=O)Nc2cccc(Nc3nccc(-c4cccnc4)n3)c2)cc1	22
47	77	O=C1NC(=O)/C(=C/c2ccc3nccc(-c4ccncc4)c3c2)S1	95

Further lines, the molecule ahead of its results:

SMILES	% control [1] [%]	% control [2] [%]	% control [3] [%]
CN(C)C/C=C/C(=O)Nc1cccc(C(=O)Nc2ccc(Nc3nccc(-c4cccnc4)n3)cc2)c1	77	6.8	48
Cc1ccc(NC(=O)c2ccc(NC(=O)/C=C/CN(C)C)cc2)cc1Nc1nccc(-c2cccnc2)n1	100	99	100
CN(C)C/C=C/C(=O)Nc1cccc(C(=O)Nc2ccc(Nc3nccc(/C(C#N)=C4\Nc5ccccc5S4)n3)cc2)c1	100	100	63
Cc1cc(NC(=O)c2cccc(NC(=O)/C=C/CN(C)C)c2)ccc1Nc1nccc(-c2cccnc2)n1	81	73	100
Fc1cc(-c2cc[nH]/c(=N/c3ccc(-n4cnc(N5CCOCC5)n4)cc3)n2)cc(N2CCOCC2)c1	57	0.8	63
